From patent US20240115592A1, “PGC-1alpha EXPRESSION PROMOTING AGENT, MUSCLE-BUILDING AGENT AND MITOCHONDRIA ACTIVATING AGENT” (YAMASA CORPORATION, priority 2020, published 2024)

Key:
[1] = system: PGC-1α; details: neurons; Patent Literature 1; cited from earlier work
[2] = system: Myogenin; test: Myogenin gene expression promoting effect (II) (Example 4); format: cell-based, Mouse; details: C2C12 cells, 4-6 days, vs control
Method: (§1) Mouse myoblast cell line C2C12 cells (RIKEN BRC, RCB0987) were suspended in growth medium (Dulbecco's modified Eagle's Medium supplemented with 10% FBS, 100 units/ml of penicillin, 100 μg/ml of streptomycin), seeded in 24-well plates, and incubated in a 37° C., 5% CO2 incubator until the cell density reached 70-90%. […] After culturing the cells for 4-6 days while exchanging the medium once every 2 days, the medium was removed, and total RNA was extracted from the cells using the RNeasy Mini kit (QIAGEN).
(§2) A level of Myogenin mRNA expression, a marker gene for myotube cell differentiation, was evaluated by the following method:
(§3) Cell culture and treatment with the test substances, total RNA extraction and reverse transcription reaction were performed as in Example 2. Real-time PCR analysis was used to determine mRNA expression levels of Myogenin and β-actin as an internal standard. Statistical analysis was also performed in the same method as that of Example 1.

[3] = system: Myh7; test: Myh7 gene expression promoting effect (II) (Example 6); format: cell-based, Mouse; details: C2C12 cells, 4-6 days, vs control
Method: as §1
(§4) A level of Myh7 mRNA expression encoding a slow-muscle type myosin protein was evaluated using the following method:
as §3, with “Myh7” for “Myogenin”

[4] = system: C2C12 cells; test: Myotube cell diameter increasing effect (II) (Example 10); format: cell-based, Mouse; details: 5-6 days; for myotube cell diameter (photographs): FIG. 13; for myotube cell diameter (ImageJ, average of 50 cells): vs control, FIGS. 14 to 17
Method: Cell culture and addition of test substances were carried out by the same method as that of Example 2. The cells were cultured for 5-6 days while exchanging a differentiation inducing medium containing the test substances once every 2 days, and five positions near the center of the wells were then photographed at magnifications of 100.
Also, using ImageJ image analysis software, the diameters of ten myotube cells per a photograph were measured in order from the myotube cell having the largest diameter, and an average of 50 cells was determined to be the diameter of the myotube cell in each well. Statistical analysis was also performed by the same method as that of Example 2.

[5] = system: PGC-1α; test: PGC-1α gene expression promoting effect (I), real-time PCR (Example 1); format: cell-based, Mouse; details: C2C12 cells, 1 mM or 5 mM disodium cytidylate, 6 days, corrected by β-actin, vs control; FIG. 1
Method: Mouse myoblast cell line C2C12 cells (RIKEN BRC, RCB0987) were suspended in growth medium (Dulbecco's modified Eagle's Medium supplemented with 10% FBS, 100 units/ml of penicillin, 100 μg/ml of streptomycin), seeded in 24-well plates, and incubated in a 37° C., 5% CO2 incubator until the cell density reached 70-90%. […] After culturing the cells for 6 days while exchanging the medium once every 2 days, the medium was removed, and total RNA was extracted from the cells using the RNeasy Mini kit (QIAGEN). Unless otherwise stated, each sample n=6 was used for the study, including the following Examples. Using the total RNA as a template, a reverse transcription reaction solution was prepared using the ReverTra Ace® qPCR RT Kit (Toyobo). The reverse transcription reaction solution, GoTaq® qPCR Master Mix (Promega), and a real-time PCR device, Thermal Cycler Dice Real Time System (Takara Bio), were used to measure mRNA expression levels of PGC-1α and β-actin as an internal standard. Analysis was performed by relative quantification, and mRNA expression levels were corrected using the β-actin mRNA expression level as an endogenous control. Dunnett's multiple comparison test was performed for statistical analysis. The threshold of statistical significance was set to 5%.

[6] = system: PGC-1α; test: PGC-1α gene expression promoting effect (II), real-time PCR (Example 2); format: cell-based, Mouse; details: C2C12 cells, 4-6 days, corrected by β-actin, vs control; FIG. 2
Method: as §1
Using the total RNA as a template, a reverse transcription reaction solution was prepared using the ReverTra Ace® qPCR RT Kit (Toyobo). The reverse transcription reaction solution, GoTaq® qPCR Master Mix (Promega), and a real-time PCR device, Thermal Cycler Dice Real Time System (Takara Bio), were used to measure the mRNA expression levels of PGC-1α and β-actin as an internal standard. Analysis was performed by relative quantification, and the mRNA expression level was corrected using the β-actin mRNA expression level as an endogenous control. Statistical analysis was performed by t-test or Dunnett's multiple comparison test using the differentiation induction medium treatment group without the test substances as a control. The threshold of statistical significance was set to 5%.

[7] = system: Myogenin; test: Myogenin gene expression promoting effect (I) (Example 3); format: cell-based, Mouse; details: C2C12 cells, disodium cytidylate, 6 days, vs control; FIG. 3
Method: as §2
(§5) Mouse myoblast cell line C2C12 cells were suspended in growth medium, seeded in 24-well plates, and incubated in a 37° C., 5% CO2 incubator until the cell density reached 70-90%. The growth medium was removed, and exchanged to a differentiation induction medium containing 1 mM disodium cytidylate or 1 mM disodium cytidylate or containing no cytidylic acid. The cells were cultured for 6 days while exchanging the medium once every 2 days. Total RNA extraction and reverse transcription reaction were performed as in Example 1. Real-time PCR analysis was used to determine mRNA expression levels of Myogenin and β-actin as an internal standard. Statistical analysis was performed in the same method as that of Example 1.

[8] = system: Myh7; test: Myh7 gene expression promoting effect (I) (Example 5); format: cell-based, Mouse; details: C2C12 cells, 5 mM disodium cytidylate, 4 days, vs control; FIG. 6
Method: as §4
as §5, with “5” for “1 mM disodium cytidylate or 1”, “4” for “6”, “days, and the medium was then removed, and the total” for “days. Total”, “Myh7” for “Myogenin”, “Welch's t-test” for “Statistical analysis”, “used for statistical analysis. The threshold for statistical significance was set to 5%.” for “performed in the same method as that of Example 1.”

[9] = system: C2C12 cells; test: Mitochondrial DNA copy number increasing effect (I) (Example 7); format: cell-based, Mouse; details: 1 mM or 5 mM disodium cytidylate, 6 days, n=3, FIG. 9
Method: Cell culture and addition of test substance were carried out by the same method as that of Example 1. The cells were cultured for 6 days while exchanging a differentiation induction medium containing the test substance once every 2 days, the medium was then removed and total DNA was extracted from the cells using DNeasy Blood & Tissue kit (QIAGEN). Extracted DNA, GoTaq® qPCR Master Mix (Promega) and a real-time PCR device, Thermal Cycler Dice Real Time System (Takara Bio), were used to determine COX2 (Cytochrome c oxidase subunit 2), a gene encoded in the mitochondrial DNA, and PPIA (Cyclophilin A), a gene encoded in […] DNA as an internal standard. The amount of COX2 present relative to the amount of PPIA present was evaluated as the mitochondrial DNA copy number. Statistical analysis was performed by the same method as that of Example 1. This Example was studied with n=3.

[10] = system: C2C12 cells; test: Mitochondrial DNA copy number increasing effect (II) (Example 8); format: cell-based, Mouse; details: 6 days, n=3, FIG. 10
Method: Cell culture and addition of test substances were carried out in the same method as that of Example 2. The cells were cultured for 6 days, the medium was then removed and total DNA was extracted from the cells using DNeasy Blood & Tissue kit (QIAGEN).
Extracted DNA, GoTaq® qPCR Master Mix (Promega) and a real-time PCR device, Thermal Cycler Dice Real Time System (Takara Bio), were used to determine COX2 (Cytochrome c oxidase subunit 2), a gene encoded in the mitochondrial DNA, and PPIA (Cyclophilin A), a gene encoded in […] DNA, as an internal standard.
The amount of COX2 present relative to the amount of PPIA present was evaluated as the mitochondrial DNA copy number. Statistical analysis was performed by the same method as that of Example 1. This Example was studied with n=3.

[11] = system: C2C12 cells; test: Myotube cell diameter increasing effect (I) (Example 9); format: cell-based, Mouse; details: 6 days; for Average myotube cell diameter: control 53.9
Method: Cell culture and addition of a test substance were carried out by the same method as that of Example 1. The cells were cultured for 6 days while exchanging a differentiation inducing medium containing the test substance once every 2 days, and five positions near the center of the wells were then photographed at magnifications of 100. Using ImageJ image analysis software, the diameters of ten myotube cells per a photograph were measured in order from the myotube cell having the largest diameter, and an average of 50 cells was determined to be the diameter of the myotube cell in each well. Statistical analysis was performed by the same method as that of Example 1. Photographs of representative examples of the respective groups are shown in FIG. 11, and the measured results of the average myotube cell diameter are shown in Table 1 and FIG. 12.

[12] = system: mitochondria; details: Patent Literature 3; cited from earlier work

CCc1oc(=O)c(Cc2c(O)c(C)c(CC)oc2=O)c(O)c1C [Helipyrone A]
PGC-1α production [1]: promotes PGC-1α production in neurons

Nc1ccn([C@@H]2O[C@H](CO)[C@@H](O)[C@H]2O)c(=O)n1 [cytidine]
Myogenin mRNA expression level ([2]; FIG. 5): excellent myotube cell differentiation promoting effect
Myh7 mRNA expression level ([3]; FIG. 8): markedly enhanced
myotube cell diameter (photographs) [4]: significantly increased
myotube cell diameter (ImageJ, average of 50 cells) [4]: concentration-dependently and remarkably increased

Nc1ccn([C@@H]2O[C@H](COP(=O)(O)O)[C@@H](O)[C@H]2O)c(=O)n1 [cytidylic acid]
PGC-1α mRNA expression level [5]: concentration-dependently and remarkably enhanced
PGC-1α mRNA expression level [6]: concentration-dependently and remarkably enhanced
Myogenin mRNA expression level [7]: concentration-dependently and remarkably enhanced
Myogenin mRNA expression level ([2]; FIG. 4): remarkably enhanced
Myogenin mRNA expression level ([2]; FIG. 5): remarkably enhanced
Myh7 mRNA expression level [8]: markedly enhanced
Myh7 mRNA expression level ([3]; FIG. 7): remarkably enhanced
mitochondrial DNA copy number (COX2 relative to PPIA) [9]: concentration-dependently and remarkably enhanced
mitochondrial DNA copy number (COX2 relative to PPIA) [10]: concentration-dependently and remarkably enhanced
Average myotube cell diameter ([11]; 1 mM CMP): 61.1 μm
Average myotube cell diameter ([11]; 5 mM CMP): 62.5 μm
myotube cell diameter ([11]; vs control, FIGS. 11 and 12): concentration-dependently and remarkably increased
myotube cell diameter (photographs) [4]: significantly increased
myotube cell diameter (ImageJ, average of 50 cells) [4]: concentration-dependently and remarkably increased

O=C(O)c1cc(C(=O)O)c2c(n1)C(=O)C(=O)c1cc(C(=O)O)[nH]c1-2 [pyrroloquinoline quinone]
mitochondria activating effects [12]: exhibits mitochondria activating effects

O=c1ccn([C@@H]2O[C@H](CO)[C@@H](O)[C@H]2O)c(=O)[nH]1 [uridine]
myotube cell diameter (photographs) [4]: significantly increased
myotube cell diameter (ImageJ, average of 50 cells) [4]: concentration-dependently and remarkably increased

O=c1ccn([C@@H]2O[C@H](COP(=O)(O)O)[C@@H](O)[C@H]2O)c(=O)[nH]1 [uridylic acid]
PGC-1α mRNA expression level [6]: concentration-dependently and remarkably enhanced
Myogenin mRNA expression level ([2]; FIG. 4): remarkably enhanced
Myh7 mRNA expression level ([3]; FIG. 7): remarkably enhanced
mitochondrial DNA copy number (COX2 relative to PPIA) [10]: concentration-dependently and remarkably enhanced
myotube cell diameter (photographs) [4]: significantly increased
myotube cell diameter (ImageJ, average of 50 cells) [4]: significantly increased
